According to patent US8614227B2, “Salt and solvates of a tetrahydroisoquinoline derivative” (Spinifex Pharmaceuticals Pty Ltd, priority 2010, dated 2013):

What was measured:
[1] = Pharmacokinetics in male beagle dogs after a single oral dose (plasma Compound 1); settings: dog, 10 mg/kg
Description: The study was designed to compare the PK profiles of the following four forms of Compound 1 administered as single oral capsules in fasted state. […] There was a washout period of 4 days between dosing. The blood samples were collected from each animal at predetermined times on the study Days 1, 4, 8 and 11. The plasma was analyzed for Compound 1 by a validated HPLC-MS/MS assay.
Descriptive PK parameters were determined by standard model independent methods (Gibaldi and Perrier, 1982) based on the individual plasma concentration-time data. Plasma concentrations were rounded to 3 significant figures. Plasma samples with concentrations below the quantifiable assay limit (BQL<2.00 ng/mL) were assigned values of zero for mean calculations. For PK calculations, BQL was set to zero from the pre-dose time up to the time of the first quantifiable concentration and thereafter was set as missing. Nominal time points were used for all calculations. • Cmax is the observed maximum plasma concentration after dosing. • Tmax is the time to reach Cmax. • T1/2 is apparent half-life calculated by ln(2)/λ where λ is the rate constant fix the log-linear portion of the terminal phase. A minimum of three values in the post-distribution phase of the plasma concentration-time curve is required for calculation of X. • AUC(0-T) is the area under the plasma concentration-time curve from time zero to the time of the last measurable plasma concentration determined using the linear trapezoidal rule. • AUC(0-inf) is the area under the plasma concentration-time curve from time zero to infinity. It is calculated by summing AUC(0-T) and the extrapolated area from the T to infinity.
PK analyses were performed by noncompartmental analysis using model 200 in WinNonlin Professional 6.1 (Pharsight Corp., Mountain View, Calif.).

[2] = Compound 2 solution stability, one week (HPLC % purity); format: physicochemical; settings: for Δ% Purity at 5° C. / Δ% Purity at 25° C./60% RH: 1 week; for Initial % Purity: t=0
Description: The above analysis was taken as t=0 and the samples were then divided in two and one of each sample was stored at 5° C. for one week and the other of each sample was stored at 25° C./60% relative humidity (RH) for one week.
After one week, the samples were allowed to equilibrate to room temperature and if required (H2O and pH 7-9 samples stored at 5° C.) refiltered to remove precipitate.
The samples were reanalyzed by HPLC.

[3] = HPMC vs gelatin capsules of amorphous Compound 2: potency, purity, water uptake after 1 week; format: physicochemical
Description: Twenty capsules of both hydroxypropyl methylcellulose (HPMC, also known as Hypromellose) and gelatin were filled with 25±1 mg of amorphous Compound 2 to determine if the lower water content found in HPMC capsules would retard the water uptake of the compound. Samples of Compound 2 in both capsule types were placed at 25° C./60% RH and 40° C./75% RH for 1 week. The samples were analyzed for water content, potency, and % purity (% area) at t=0 and t=1 week.
20 transparent size 00 HPMC capsules and 20 transparent size 00 gelatin capsules were hand filled with API.
Each capsules was filled with 25±1 mg of API.
The two capsule types were both separated into two 30 cc HDPE bottles with caps and placed at both 25° C./60% RH and 40° C./75% RH for 1 week.
For the t=0 time point, Compound 2 was analyzed for water content, potency, and % purity (% area).
Two samples of Compound 2 were taken at t=0 for water content. The first sample was taken after the HPMC capsules had been filled and the second sample was taken after the gelatin capsules had been filled. This sampling procedure was done to offset the water uptake that took place while the capsules were being filled.
76.17 mg of Compound 2 was weighed directly into a 100-mL volumetric flask.
The flask was diluted to volume with ACN and inverted to mix.
A 1 mL aliquot was transferred directly into an HPLC vial for analysis.

[4] = Table 42 summary, mean, dogs, single oral 10 mg/kg, plasma Compound 1
[5] = dog 301, single oral 10 mg/kg dose, plasma Compound 1
[6] = dog 302, single oral 10 mg/kg dose, plasma Compound 1
[7] = dog 303, single oral 10 mg/kg dose, plasma Compound 1
[8] = dog 304, single oral 10 mg/kg dose, plasma Compound 1
[9] = mean of dogs, single oral 10 mg/kg dose, plasma Compound 1
[10] = Gelatin Capsules, 25° C., t = 1 week
[11] = Gelatin Capsules, 40° C., t = 1 week
[12] = HPMC Capsules, 25° C., t = 1 week
[13] = HPMC Capsules, 40° C., t = 1 week

## COc1ccc2c(c1OCc1ccccc1)C[C@@H](C(=O)[O-])N(C(=O)C(c1ccccc1)c1ccccc1)C2.[Na+] [Compound 2, sodium salt of (S)-2-(diphenylacetyl)-1,2,3,4-tetrahydro-6-methoxy-5-(phenylmethoxy)-3-isoquinoline carboxylic acid]
[1]; [4]
  AUC(0-t): 1840 ng·h/mL
  AUC(0-inf): 1840 ng·h/mL
[1]; [5]
  AUC(0-t): 1290 ng·h/mL
  AUC(0-inf): 1300 ng·h/mL
[1]; [6]
  AUC(0-t): 2350 ng·h/mL
  AUC(0-inf): 2350 ng·h/mL
[1]; [7]
  AUC(0-t): 1520 ng·h/mL
  AUC(0-inf): 1520 ng·h/mL
[1]; [8]
  AUC(0-t): 2180 ng·h/mL
  AUC(0-inf): 2220 ng·h/mL
[1]; [9]
  AUC(0-t): 1830 ng·h/mL
  AUC(0-inf): 1840 ng·h/mL
[1]; Cmax, dog 301, single oral 10 mg/kg dose, plasma Compound 1
  Cmax: 1110 ng/mL
[1]; Cmax, dog 302, single oral 10 mg/kg dose, plasma Compound 1
  Cmax: 1220 ng/mL
[1]; Cmax, dog 303, single oral 10 mg/kg dose, plasma Compound 1
  Cmax: 1750 ng/mL
[1]; Cmax, dog 304, single oral 10 mg/kg dose, plasma Compound 1
  Cmax: 2270 ng/mL
[1]; Cmax, mean of dogs, single oral 10 mg/kg dose, plasma Compound 1
  Cmax: 1590 ng/mL
[1]; Mean harmonic T1/2, male beagle dogs, single oral 10 mg/kg capsule, fasted, Compound 1 in plasma
  half-life: 2.49 ± 0.391 h
[1]; T1/2, Table 42 summary, harmonic mean, dogs, single oral 10 mg/kg, plasma Compound 1
  half-life: 2.49 h
[1]; T1/2, dog 301, single oral 10 mg/kg dose, plasma Compound 1
  half-life: 2.51 h
[1]; T1/2, dog 302, single oral 10 mg/kg dose, plasma Compound 1
  half-life: 2.73 h
[1]; T1/2, dog 303, single oral 10 mg/kg dose, plasma Compound 1
  half-life: 2.05 h
[1]; T1/2, dog 304, single oral 10 mg/kg dose, plasma Compound 1
  half-life: 2.81 h
[1]; T1/2, harmonic mean of dogs, single oral 10 mg/kg dose, plasma Compound 1
  half-life: 2.49 h
[1]; Tmax, Table 42 summary, median, dogs, single oral 10 mg/kg, plasma Compound 1
  Tmax: 0.75 h
[1]; Tmax, dog 301, single oral 10 mg/kg dose, plasma Compound 1
  Tmax: 0.75 h
[1]; Tmax, dog 302, single oral 10 mg/kg dose, plasma Compound 1
  Tmax: 1 h
[1]; Tmax, dog 303, single oral 10 mg/kg dose, plasma Compound 1
  Tmax: 0.75 h
[1]; Tmax, dog 304, single oral 10 mg/kg dose, plasma Compound 1
  Tmax: 0.5 h
[1]; Tmax, median of dogs (Mean column), single oral 10 mg/kg dose, plasma Compound 1
  Tmax: 0.75 h
[1]; mean Cmax, male beagle dogs, single oral 10 mg/kg capsule, fasted, Compound 1 in plasma, mean±SD
  Cmax: 1590 ± 534 ng/mL
[1]; median Tmax, male beagle dogs, single oral 10 mg/kg capsule, fasted, Compound 1 in plasma
  Tmax: 0.75 h
[2]; pH 6 buffer solution
  t = 1 week % Purity at 5° C.: 87.02%
  t = 1 week % Purity at 25° C./60% RH: 88.98%
  Δ% Purity at 5° C.: −1.35%
  Δ% Purity at 25° C./60% RH: +0.61%
  Initial % Purity: 88.37%
[2]; pH 7 buffer solution
  t = 1 week % Purity at 5° C.: 74.27%
  t = 1 week % Purity at 25° C./60% RH: 76.52%
  Δ% Purity at 5° C.: −1.85%
  Δ% Purity at 25° C./60% RH: +0.40%
  Initial % Purity: 76.12%
[2]; pH 8 buffer solution
  t = 1 week % Purity at 5° C.: 81.45%
  t = 1 week % Purity at 25° C./60% RH: 86.70%
  Δ% Purity at 5° C.: −4.09%
  Δ% Purity at 25° C./60% RH: +1.16%
  Initial % Purity: 85.54%
[2]; pH 9 buffer solution
  t = 1 week % Purity at 5° C.: 89.17%
  t = 1 week % Purity at 25° C./60% RH: 91.60%
  Δ% Purity at 5° C.: −2.07%
  Δ% Purity at 25° C./60% RH: +0.36%
  Initial % Purity: 91.24%
[2]; solution in ACN
  t = 1 week % Purity at 5° C.: 97.50%
  t = 1 week % Purity at 25° C./60% RH: 97.46%
  Δ% Purity at 5° C.: 0.00%
  Δ% Purity at 25° C./60% RH: −0.04%
  Initial % Purity: 97.50%
[2]; solution in H2O
  t = 1 week % Purity at 5° C.: 94.66%
  t = 1 week % Purity at 25° C./60% RH: 95.67%
  Δ% Purity at 5° C.: −0.92%
  Δ% Purity at 25° C./60% RH: +0.09%
  Initial % Purity: 95.58%
[2]; solution in IPA
  t = 1 week % Purity at 5° C.: 89.59%
  t = 1 week % Purity at 25° C./60% RH: 90.51%
  Δ% Purity at 5° C.: +0.31%
  Δ% Purity at 25° C./60% RH: +1.23%
  Initial % Purity: 89.28%
[2]; solution in MeOH
  t = 1 week % Purity at 5° C.: 97.52%
  t = 1 week % Purity at 25° C./60% RH: 97.39%
  Δ% Purity at 5° C.: +0.13%
  Δ% Purity at 25° C./60% RH: 0.00%
  Initial % Purity: 97.39%
[3]; [10]
  % Potency: 90.1%
  % a/a Purity: 98.95 % a/a
  Δ% a/a Purity: 0.00 % a/a
[3]; [11]
  % Potency: 90.8%
  % a/a Purity: 98.88 % a/a
  Δ% a/a Purity: −0.07 % a/a
[3]; [12]
  % Potency: 90.2%
  % a/a Purity: 98.95 % a/a
  Δ% a/a Purity: 0.00 % a/a
[3]; [13]
  % Potency: 89.8%
  % a/a Purity: 98.74 % a/a
  Δ% a/a Purity: −0.21 % a/a
[3]; Sample t = 0
  % Potency: 86.3%
  % a/a Purity: 98.95 % a/a
[3]; all conditions tested (HPMC and gelatin capsules, 25° C./60% RH and 40° C./75% RH)
  potency and % purity (% area) after 1 week: unchanged
[3]; stored at 40° C./75% RH, 1 week
  slowing of the uptake of water by HPMC capsules relative to gelatin: 3.74%
